Experimental data published in PMC2118091 (The Journal of Experimental Medicine, 2006).

Columns and labels:
IgM CM-22 [1] = assay: SPR analysis of peptide binding to IgM CM-22; parameters: species or system mouse
IgM CM-22 [2] = assay: Titration of P8 peptide with IgM CM-22; parameters: species or system mouse; conditions: 200 μg IgM CM-22 (0.1–0.2 μM); unpublished data
WT mice = assay: Intestinal RI model in WT mice, pathology score; type: in vivo, mouse; conditions: final serum concentration, i.v. 5 min before reperfusion
[3] = system: IgM, complement C4 and C3; assay: Immunohistology of IgM, C4 and C3 deposition after intestinal RI in WT mice; type: in vivo, mouse; conditions: RI-treated WT mice given P8 peptide; unpublished data
complement C3 = conditions: pretreatment of rats, myocardial infarction model; cited from earlier work

Q: With “AGCMPYVRIPTA [control peptide, reference compound]” as the substance, how does the “binding to IgM CM-22 surface” value (IgM CM-22 [1]; SPR, PBS, 25°C, control peptide injected at 117 μM) read?
A: no binding

Q: For NGNNVNGNRNNN [P8 peptide], which “optimal peptide concentration sufficient to block IgM CM-22” value (IgM CM-22 [2]) is on record?
A: ~10 µM

Q: And the “protective concentration in intestinal RI” value (WT mice)?
A: 10 µM

Q: What about the “CM-22 binding affinity relative to N2” value (IgM CM-22 [1]; comparison in words, no KD printed for P8) of the same substance?
A: higher CM-22 binding affinity relative to N2

Q: And the “IgM, C4 and C3 deposition within microvilli” value [3]?
A: colocalized within microvilli of RI-treated WT mice but not in mice administered P8 peptide

Q: With “sCR1: specific soluble inhibitor of complement C3 (sCR1)” as the substance, how does the “myocardial injury” value (complement C3) read?
A: dramatically reduced injury
